Measurements reported in patent publication US20160152540A1, “NEW PROCESS FOR THE MAINTAINING OF A RATIO OF ISOMERS OF CAROTENOID COMPOUNDS” (DSM IP ASSETS B.V., priority 2013, published 2016).

Assay: Stability of the astaxanthin stereoisomer ratio (all-E form) in chloroform at 40° C., measured spectrophotometrically at 478 nm
Settings: tempered at 40° C., stored, sampled periodically
Experimental: The solution was homogenized and the formulation was tempered at 40° C. The solution was stored and samples were taken periodically and the concentration of astaxanthin was measured spectrophotometrically at 478 nm.

Row | SMILES | stabilisation of the all-E-form / ratio of stereoisomers of astaxanthin (FIG. 1 and FIG. 2)
1 | CC(=O)[O-].[K+] [CH3COOK, potassium acetate] | stabilises the all-E-form better than K2CO3
2 | CC1=C(/C=C/C(C)=C/C=C/C(C)=C/C=C/C=C(C)/C=C/C=C(C)/C=C/C2=C(C)C(=O)[C@@H](O)CC2(C)C)C(C)(C)C[C@H](O)C1=O [astaxanthin] | the ratio is deteriorating usually
